In US20240090497A1, “SURFACTANT BLENDS FOR HYPOHALITE-BASED DISINFECTING COMPOSITIONS” (GOJO Industries, Inc., priority 2022, published 2024):

Test: Surface tension of hypohalite-based disinfecting compositions, Wilhelmy plate method
Assay type: physicochemical
Details: hypohalite-based disinfecting composition with this surfactant alone (0% or 100% point of the blend plot)
Experimental: Various combinations of surfactants were tested with respect to the surface tension of hypohalite-based disinfecting compositions comprising the surfactant blend. Specifically, exemplary blends were prepared using varying surfactants having an average tail chain length of a C10 to C14 value. The surfactant blends were tested at varying molar ratios.
Accordingly, each surfactant blend comprised a first surfactant having a first surfactant surface tension T^1 and a second surfactant having a second surfactant surface tension T^2. The respective overall surface tension T for each surfactant blend was thereafter tested, using the Wilhelmy plate method.

individual surfactant surface tension	Compound
28.7 mN/m	CCCCCCCCCCO[C@@H]1O[C@H](CO)[C@@H](O)[C@H](O)[C@H]1O [decyl glucoside]
34.7 mN/m	cocobetaine
32.1 mN/m	myristamine oxide
26.9 mN/m	undeceth-3

Second part, the compound before the results:

Compound	individual surfactant surface tension
CCCCCCCCCCCCOS(=O)(=O)[O-].[Na+] [sodium lauryl sulfate]	29.7 mN/m
CCCCCCCCCCCCCCOS(=O)(=O)[O-].[Na+] [sodium myristyl sulfate]	39.8 mN/m
lauramine oxide	32.4 mN/m
laureth-6	29.7 mN/m
